The values below are quoted from earlier work in patent publication US10376470B2, “Oral tablet formulation consisting of fixed combination of rosuvastatin and ezetimibe for treatment of hyperlipidemia and cardiovascular diseases” (Althera Life Sciences, LLC, priority 2012, dated 2019).

Molecules are shown by their SMILES.

As for `O=C1[C@H](CC[C@H](O)c2ccc(F)cc2)[C@@H](c2ccc(O)cc2)N1c1ccc(F)cc1` [Ezetimibe, ezetimibe], the Solubility in water result is recorded as “practically insoluble”.
